Data reported in patent publication US10765114B2, “4-amino-6-(pyridyl and 2-substitutedphenyl)-picolinates and 6-amino-2-(pyridyl and 2-substitutedphenyl)-pyrimidine-4-carboxylates and their use as herbicides” (Dow AgroSciences LLC, priority 2013, dated 2020).

Key:
Experiment in all cases: Post-Emergent Test III (Wheat and Barley)
[1] = system: LAMPU (purple deadnettle); type: in vivo, Lamium purpureum; details: for Visual Growth Reduction (%) 21 Days After Application, LAMPU: postemergence
Protocol: (§1) Seeds of the desired test plant species were planted in Sun Gro MetroMix® 306 planting mixture, which typically has a pH of 6.0 to 6.8 and an organic matter content of about 30 percent, in plastic pots with a surface area of 103.2 square centimeters (cm^2). When required to ensure good germination and healthy plants, a fungicide treatment and/or other chemical or physical treatment was applied. The plants were grown for 7-36 days in a greenhouse with an approximate 14 h photoperiod which was maintained at about 18° C. during the day and 17° C. during the night. Nutrients and water were added on a regular basis and supplemental lighting was provided with overhead metal halide 1000-Watt lamps as necessary. The plants were employed for testing when they reached the second or third true leaf stage.
(§2) A weighed amount, determined by the highest rate to be tested, of each test compound was placed in a 25 mL glass vial and was dissolved in 4 mL of a 97:3 v/v mixture of acetone and DMSO to obtain concentrated stock solutions. […] The concentrated stock solutions obtained were diluted with 20 mL of an aqueous mixture containing acetone, water, isopropyl alcohol, DMSO, Agri-Dex crop oil concentrate, and X-77 surfactant in a 48:39:10:1.5:1.5:0.02 v/v ratio to obtain spray solutions containing the highest application rates. Additional application rates were obtained by serial dilution of 12 mL of the high rate solution into a solution containing 2 mL of 97:3 v/v mixture of acetone and DMSO and 10 mL of an aqueous mixture containing acetone, water, isopropyl alcohol, DMSO, Agri-Dex crop oil concentrate, and X-77 surfactant in a 48:39:10:1.5:1.5:0.02 v/v ratio to obtain ½×, ¼×, ⅛× and 1/16× rates of the high rate. Compound requirements are based upon a 12 mL application volume at a rate of 187 liters per hectare (L/ha). Formulated compounds were applied to the plant material with an overhead Mandel track sprayer equipped with 8002E nozzles calibrated to deliver 187 L/ha over an application area of 0.503 square meters at a spray height of 18 inches (43 cm) above the average plant canopy height. Control plants were sprayed in the same manner with the solvent blank.
(§3) The treated plants and control plants were placed in a greenhouse as described above and watered by subirrigation to prevent wash-off of the test compounds. After 21 dAYS, the condition of the test plants as compared with that of the untreated plants was determined visually and scored on a scale of 0 to 100 percent where 0 corresponds to no injury and 100 corresponds to complete kill and presented as indicated in Table A.
(§4) By applying the well-accepted probit analysis as described by J. Berkson in Journal of the American Statistical Society, 48, 565 (1953) and by D. Finney in “Probit Analysis” Cambridge University Press (1952), herbicidal injury of a specific compound at various rates can be used to calculate GR10, GR20, GR50, GR80 and GR90 values, which are defined as growth reduction factors that correspond to the effective dose of herbicide required to provide plant growth reduction (GR) of 10 percent, 20 percent, 50 percent, 80 percent and 90 percent, respectively. Probit analysis was applied to data collected from multiple dose rates of individual compounds utilizing the procedures explained in the following examples. The analysis of those dose rates is captured in the following tables.

SINAR (wild mustard) = type: in vivo, Sinapis arvensis; details: for Visual Growth Reduction (%) 21 Days After Application, SINAR: postemergence
Protocol: as §1, §2, §3, §4

BRSSS = type: in vivo; details: for Visual Growth Reduction (%) 21 Days After Application, BRSSS: postemergence
How it was run: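 Plants grown in greenhouse (14 h photoperiod, ~18/17 °C day/night) to second or third true leaf stage were sprayed post-emergence at 187 L/ha in acetone/DMSO-based spray solution with crop oil and surfactant, top rate plus ½× to 1/16× dilutions. Visual injury (0–100%) versus untreated plants was scored after 21 days.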

[2] = effective dose for growth reduction of 50 percent, probit analysis
[3] = effective dose for growth reduction of 80 percent, probit analysis
[4] = effective dose for growth reduction of 90 percent, probit analysis

## COC(=O)c1nc(-c2ccc(Cl)c(F)c2C)cc(N)c1Cl [Compound 73]
[1]; 35 g ai/ha
  Visual Growth Reduction (%) 21 Days After Application, LAMPU: A (95-100)
[1]; 70 g ai/ha
  Visual Growth Reduction (%) 21 Days After Application, LAMPU: A (95-100)
[1]; 140 g ai/ha
  Visual Growth Reduction (%) 21 Days After Application, LAMPU: A (95-100)
[1]; [2]
  GR50, LAMPU: <17.5 g ai/ha
[1]; [3]
  GR80, LAMPU: <17.5 g ai/ha
[1]; [4]
  GR90, LAMPU: <17.5 g ai/ha
SINAR (wild mustard); 35 g ai/ha
  Visual Growth Reduction (%) 21 Days After Application, SINAR: A (95-100)
SINAR (wild mustard); 70 g ai/ha
  Visual Growth Reduction (%) 21 Days After Application, SINAR: A (95-100)
SINAR (wild mustard); 140 g ai/ha
  Visual Growth Reduction (%) 21 Days After Application, SINAR: A (95-100)
SINAR (wild mustard); [2]
  GR50, SINAR: 1 g ai/ha
SINAR (wild mustard); [3]
  GR80, SINAR: 1 g ai/ha
SINAR (wild mustard); [4]
  GR90, SINAR: 3 g ai/ha
BRSSS; 35 g ai/ha
  Visual Growth Reduction (%) 21 Days After Application, BRSSS: C (75-84)
BRSSS; 70 g ai/ha
  Visual Growth Reduction (%) 21 Days After Application, BRSSS: B (85-94)
BRSSS; 140 g ai/ha
  Visual Growth Reduction (%) 21 Days After Application, BRSSS: A (95-100)
BRSSS; [2]
  GR50, BRSSS: 5 g ai/ha
BRSSS; [3]
  GR80, BRSSS: 29 g ai/ha
BRSSS; [4]
  GR90, BRSSS: 73 g ai/ha
